Legend:
[1] = tested on: spontaneous sleep apnea in the rat; assay: spontaneous sleep apnea model in the rat (plethysmography with EEG/EMG recording); format: in vivo; conditions: for efficacy against sleep apnea (rate of apneas per hour of NREM and REM sleep, 6 hours of polygraphic recording): systemic injection 15 min before recording, Example 2, described as results that can be obtained
Protocol: Adult, male Sprague-Dawley rats (obtained from Sasco-King, Wilmington, Mass.; usually 8 per test group; average weight=300 g) are maintained on a 12-hour light (08:00-20:00 hour)/12-hour dark (20:00-08:00 hour) cycle for one week, housed in individual cages and given ad libitum access to food and water. Following the one week of acclimatization, animals are subjected to the following surgical procedures.
Acclimatized animals are anesthetized using a mixture of ketamine […] and xylazine (5 mg/kg) at a volume of 1 ml/kg body weight for the implantation of cortical electrodes for electroencephalogram (EEG) recording and neck muscle electrodes for electromyogram (EMG) recording. The surface of the skull is exposed surgically and cleaned with a 20% solution of hydrogen peroxide followed by a solution of 95% isopropyl alcohol. Next, a dental preparation of sodium fluoride (Flura-GEL®, Saslow Dental, Mt. Prospect, Ill.) is applied to harden the skull above the parietal cortex and allowed to remain in place for 5 minutes. The fluoride mixture is then removed from the skull above the parietal cortex. The EEG electrodes consisting of four stainless steel machine screws, having leads attached thereto, are threaded into the skull to rest on the dura over the parietal cortex. A thin layer of Justi® resin cement (Saslow Dental, Mt. Prospect, Ill.) is applied to cover the screw heads (of screws implanted in the skull) and surrounding skull to further promote the adhesion of the implant. EMG electrodes consisting of two ball-shaped wires are inserted into the bilateral neck musculature. All leads (i.e., EEG and EMG leads) are soldered to a miniature connector (39F1401, Newark Electronics, Schaumburg, Ill.). Lastly, the entire assembly is fixed to the skull with dental cement.
After surgery, all animals are allowed to recover for one week before being recorded for sleep and breathing.
Physiological parameters (see below) from each animal prepared as set forth in Example 1 are recorded on 2 occasions in random order, with recordings for an individual animal separated by at least 3 days. Fifteen minutes prior to each recording an animal receives a systemic injection (1 ml/kg intraperitoneal bolus) of either saline (control) or an active dose of a drug treatment.
Respiration is recorded by placing each animal, unrestrained, inside a single chamber plethysmograph (PLYUN1R/U; Buxco Electronics, Sharon, Conn.; dimension 6 in. ×10 in.×6 in.) ventilated with a bias flow of fresh room air at a rate of 2 L/min. A cable plugged onto the animal's connector and passed through a sealed port is used to collect the bioelectrical activity from the head implant.
Sleep and waking states are assessed using software developed by Benington et al. (1994, Sleep 17: 28-36) to analyze the biparietal EEG and nuchal EMG signals on 10-second epochs. This software discriminates wakefulness (W) as a high frequency low amplitude EEG with a concomitant high EMG tone, NREM sleep by increased spindle and […] together with decreased EMG tone, and REM sleep by a low ratio of a delta to theta activity and an absence of EMG tone. Sleep efficiency is measured as the percentage of total recorded epochs staged as NREM or REM sleep.
An accepted physiological animal model of spontaneous sleep apnea in the rat (see Radulovacki & Carley, 2002, in SLEEP-RELATED BREATHING DISORDERS: EXPERIMENTAL MODELS AND THERAPEUTIC POTENTIAL, (Carley & Radulovacki, eds.), Marcel Dekker: New York, pp. 3-16) is used to assess the effects of test drugs. More specifically, sleep apneas, defined as cessation of respiratory effort for at least 2.5 seconds, are scored for each recording session and associated with the stage of sleep in which they occur (i.e., NREM or REM sleep). The duration requirement of 2.5 seconds represents at least 2 “missed” breaths, which is therefore analogous to a 10 second apnea duration requirement in humans, which also reflects 2-3 missed breaths. […]

[2] = tested on: sleep apnea in OSAS patients; conditions: cited from earlier work
[3] = tested on: central apneas during all sleep stages; conditions: rats with frequent central apneas; cited from earlier work

polyphloretin phosphate
efficacy against sleep apnea (rate of apneas per hour of NREM and REM sleep, 6 hours of polygraphic recording) [1]: dose-dependent efficacy

CCCCCNC(=O)c1coc([C@H]2[C@@H](Cc3ccccc3CCC(=O)O)[C@@H]3CC[C@H]2O3)n1 [Ifetroban]
efficacy against sleep apnea (rate of apneas per hour of NREM and REM sleep, 6 hours of polygraphic recording) [1]: dose-dependent efficacy

diphloretin phosphate
efficacy against sleep apnea (rate of apneas per hour of NREM and REM sleep, 6 hours of polygraphic recording) [1]: dose-dependent efficacy

CC(=O)NNC(=O)N1Cc2ccccc2Oc2ccc(Cl)cc21 [SC19220]
animals in which apnea was eliminated throughout the 6-hour recording ([1]; intraperitoneal injection, 0.005 mg/kg, 4 test animals): 2 of 4
average reduction of apnea frequency with respect to placebo (DMSO) control injection ([1]; intraperitoneal injection, 0.005 mg/kg, 4 test animals, 6-hour recording): 64%

O=C(O)CCn1c2c(c3ccccc31)C[C@H](NS(=O)(=O)c1ccc(F)cc1)CC2 [ramatroban]
efficacy against sleep apnea (rate of apneas per hour of NREM and REM sleep, 6 hours of polygraphic recording) [1]: dose-dependent efficacy

O=C1CC2(CCCC2)CC(=O)N1CCCCN1CCN(c2ncccn2)CC1 [Buspirone]
patients with reduced apnea index ([2]; patients with sleep apnea syndrome (Mendelson et al., 1991)): 4 of 5

COc1cc(N)c(Cl)cc1C(=O)N[C@H]1CN2CCC1CC2 [R-zacopride]
apnea frequency [3]: reduce apnea frequency

Cc1nccn1CC1CCc2c(c3ccccc3n2C)C1=O (stereo not drawn) [ondansetron]
apnea frequency [3]: reduce apnea frequency
effect on sleep apnea ([2]; another study of OSAS patients): failed to demonstrate any effect

CN1CCN2c3ncccc3Cc3ccccc3C2C1 (stereo not drawn) [mirtazapine]
apnea frequency [3]: reduce apnea frequency
reduction of apnea frequency ([2]; one study of OSAS patients): 50%

— patent publication US8076315B2, “Pharmacological treatments for sleep disorders (apnoe) with prostanoid receptor antagonists” (The Board of Trustees of the University of Illinois, priority 2005, dated 2011)
